Consider five compounds from patent US12503471B2, “Triazatricycle compounds for the treatment of autoimmune disease” (Hoffmann-La Roche Inc., priority 2019, dated 2025).

This test concerns the target T1, human TLR7 (Homo sapiens, UniProt Q9NYK1).
T1 construct: host or cells: HEK293 (HEK-Blue hTLR7)
T1 sequence (Q9NYK1 27-1049): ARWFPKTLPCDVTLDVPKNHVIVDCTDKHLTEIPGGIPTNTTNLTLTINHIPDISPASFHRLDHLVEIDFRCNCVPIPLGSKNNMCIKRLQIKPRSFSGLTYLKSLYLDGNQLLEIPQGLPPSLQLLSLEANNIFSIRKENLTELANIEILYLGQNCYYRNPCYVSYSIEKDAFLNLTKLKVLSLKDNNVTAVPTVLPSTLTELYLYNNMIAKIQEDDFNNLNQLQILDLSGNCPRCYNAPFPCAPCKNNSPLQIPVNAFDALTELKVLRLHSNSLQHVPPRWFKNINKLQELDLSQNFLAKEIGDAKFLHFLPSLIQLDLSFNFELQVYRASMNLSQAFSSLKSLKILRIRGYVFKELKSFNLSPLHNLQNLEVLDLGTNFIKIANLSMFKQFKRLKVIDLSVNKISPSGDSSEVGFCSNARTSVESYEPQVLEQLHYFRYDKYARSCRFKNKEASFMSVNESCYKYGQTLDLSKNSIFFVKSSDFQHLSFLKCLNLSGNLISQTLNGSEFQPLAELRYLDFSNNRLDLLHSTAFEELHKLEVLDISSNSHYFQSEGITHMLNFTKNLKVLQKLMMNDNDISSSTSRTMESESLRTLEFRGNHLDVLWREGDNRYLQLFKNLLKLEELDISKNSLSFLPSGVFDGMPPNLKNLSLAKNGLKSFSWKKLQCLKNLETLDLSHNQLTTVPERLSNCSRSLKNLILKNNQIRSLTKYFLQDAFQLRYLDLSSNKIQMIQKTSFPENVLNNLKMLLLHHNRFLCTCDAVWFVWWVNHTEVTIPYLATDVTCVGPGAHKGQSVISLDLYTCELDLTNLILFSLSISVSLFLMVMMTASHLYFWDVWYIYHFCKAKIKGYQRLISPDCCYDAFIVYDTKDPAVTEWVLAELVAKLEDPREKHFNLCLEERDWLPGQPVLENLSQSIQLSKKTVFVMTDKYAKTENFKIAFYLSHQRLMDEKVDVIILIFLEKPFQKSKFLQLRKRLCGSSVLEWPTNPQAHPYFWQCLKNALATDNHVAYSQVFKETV
Put plainly: HEK293-Blue-hTLR-7 cells assay. It counts as cell-based. The conditions noted are these: HEK293-Blue-hTLR7 cells, R848 stimulation, 20 hrs, SEAP reporter; read-out: HEK/hTLR7 IC50. The source says:
HEK293-Blue-hTLR-7 Cells Assay:
A stable HEK293-Blue-hTLR-7 cell line was purchased from InvivoGen (Cat. #: hkb-htlr7, San Diego, Calif., USA). These cells were originally designed for studying the stimulation of human TLR7 by monitoring the activation of NF-κB. A SEAP (secreted embryonic alkaline phosphatase) reporter gene was placed under the control of the IFN-β minimal promoter fused to five NF-κB and AP-1-binding sites. The SEAP was induced by activating NF-κB and AP-1 via stimulating HEK-Blue hTLR7 cells with TLR7 ligands. Therefore the reporter expression was declined by TLR7 antagonist under the stimulation of a ligand, such as R848 (Resiquimod), for incubation of 20 hrs. The cell culture supernatant SEAP reporter activity was determined using QUANTI-Blue™ kit (Cat. #: rep-qbl, Invivogen, San Diego, Ca, USA) at a wavelength of 640 nm, a detection medium that turns purple or blue in the presence of alkaline phosphatase.
HEK293-Blue-hTLR7 cells were incubated at a density of 250,000˜450,000 cells/mL in a volume of 170 μL in a 96-well plate in Dulbecco's Modified Eagle's medium (DMEM) containing 4.5 g/L glucose, 50 U/mL penicillin, […], […], 2 mM L-glutamine, 10% (v/v) heat-inactivated fetal bovine serum with addition of 20 μL test compound in a serial dilution in the presence of final DMSO at 1% and 10 μL of 20 uM R848 in above DMEM, perform incubation under 37° C. in a CO2 incubator for 20 hrs. Then 20 μL of the supernatant from each well was incubated with 180 μL Quanti-blue substrate solution at 37° C. for 2 hrs and the absorbance was read at 620-655 nm using a spectrophotometer. The signaling pathway that TLR7 activation leads to downstream NF-κB activation has been widely accepted, and therefore similar reporter assay was modified for evaluating TLR7 antagonist.
`[2H]c1ccc2c(N3C[C@@H](C)N4Cc5nc(N6CC[C@H](OC)[C@@H](N)C6)ccc5[C@H]4C3)ccc(C#N)c2n1` [Example 14, 5-[(2S,6R)-11-[(3S,4S)-3-amino-4-methoxy-1-piperidyl]-6-methyl-4,7,10-triazatricyclo[7.4.0.02,7]trideca-1(9),10,12-trien-4-yl]-2-deuterio-quinoline-8-carbonitrile]: the IC50 was 3.4 nM. For `[2H]c1ccc2c(N3C[C@@H](C)N4Cc5nc(N6CC[C@@](C)(N)C6)ccc5[C@H]4C3)ccc(C#N)c2n1` [Example 7, 5-[(2S,6R)-11-[(3R)-3-amino-3-methyl-pyrrolidin-1-yl]-6-methyl-4,7,10-triazatricyclo[7.4.0.02,7]trideca-1(9),10,12-trien-4-yl]-2-deuterio-quinoline-8-carbonitrile] the value was 2.8 nM; for `[2H]c1ccc2c(N3C[C@@H](C)N4Cc5nc(N6CCC(C)(N)CC6)ccc5[C@H]4C3)ccc(C#N)c2n1` [Example 19, 5-[(2S,6R)-11-(4-amino-4-methyl-1-piperidyl)-6-methyl-4,7,10-triazatricyclo[7.4.0.02,7]trideca-1(9),10,12-trien-4-yl]-2-deuterio-quinoline-8-carbonitrile], 1.1 nM; for `[2H]c1ccc2c(N3C[C@@H](C)N4Cc5nc(N6CC[C@H](N)[C@@H](OC)C6)ccc5[C@H]4C3)ccc(C#N)c2n1` [Example 12, 5-[(2S,6R)-11-[(3S,4S)-4-amino-3-methoxy-1-piperidyl]-6-methyl-4,7,10-triazatricyclo[7.4.0.02,7]trideca-1(9),10,12-trien-4-yl]-2-deuterio-quinoline-8-carbonitrile], 1.6 nM. For `[2H]c1ccc2c(N3C[C@@H](C)N4Cc5nc(N6CC[C@H]7CNC[C@H]76)ccc5[C@H]4C3)ccc(C#N)c2n1` [Example 10, 5-[(2S,6R)-11-[(3aS,6aS)-3,3a,4,5,6,6a-hexahydro-2H-pyrrolo[2,3-c]pyrrol-1-yl]-6-methyl-4,7,10-triazatricyclo[7.4.0.02,7]trideca-1(9),10,12-trien-4-yl]-2-deuterio-quinoline-8-carbonitrile] the value was 1.9 nM.
